How the values were obtained:
[1] = system: Alpha hemolytic streptococci; assay: Sensitivity panel on organism isolated from mare endometrium; type: cell-based; conditions: isolate from endometrium of 16 year old Quarter Horse mare
Text: (§1) The microscopic findings from the lab were described as mild to moderate diffuse acute superficial […], Grade IIA endometrium. The lab also isolated Escherichia coli and Alpha-hemolytic streptococci. The sensitivity panel yielded the results in Table 1.

Escherichia coli = assay: as above; type: cell-based; conditions: isolate from endometrium of 16 year old Quarter Horse mare
Text: as §1

## NCC[C@H](O)C(=O)N[C@@H]1C[C@H](N)[C@@H](O[C@H]2O[C@H](CN)[C@@H](O)[C@H](O)[C@H]2O)[C@H](O)[C@H]1O[C@H]1O[C@H](CO)[C@@H](O)[C@H](N)[C@H]1O [Amikacin]
[1]
  Sensitivity Panel, Alpha hemolytic streptococci organism isolated: Resistant
Escherichia coli
  Sensitivity Panel, Escherichia coli Organism Isolated: Sensitive

## CC1(C)S[C@@H]2[C@H](NC(=O)[C@H](N)c3ccccc3)C(=O)N2[C@H]1C(=O)O [Ampicillin]
[1]
  Sensitivity Panel, Alpha hemolytic streptococci organism isolated: Sensitive
Escherichia coli
  Sensitivity Panel, Escherichia coli Organism Isolated: Intermediate

## Cc1nnc(SCC2=C(C(=O)O)N3C(=O)[C@@H](NC(=O)Cn4cnnn4)[C@H]3SC2)s1 [Cefazolin]
[1]
  Sensitivity Panel, Alpha hemolytic streptococci organism isolated: Sensitive
Escherichia coli
  Sensitivity Panel, Escherichia coli Organism Isolated: Sensitive

## CO/N=C(\C(=O)N[C@@H]1C(=O)N2C(C(=O)O)=C(CSC(=O)c3ccco3)CS[C@H]12)c1csc(N)n1 [Ceftiofur]
[1]
  Sensitivity Panel, Alpha hemolytic streptococci organism isolated: Sensitive
Escherichia coli
  Sensitivity Panel, Escherichia coli Organism Isolated: Sensitive

## CCN1CCN(c2cc3c(cc2F)c(=O)c(C(=O)O)cn3C2CC2)CC1 [Enrofloxacin]
[1]
  Sensitivity Panel, Alpha hemolytic streptococci organism isolated: Sensitive
Escherichia coli
  Sensitivity Panel, Escherichia coli Organism Isolated: Sensitive

## CC[C@H]1OC(=O)[C@H](C)[C@@H](O[C@H]2C[C@@](C)(OC)[C@@H](O)[C@H](C)O2)[C@H](C)[C@@H](O[C@@H]2O[C@H](C)C[C@H](N(C)C)[C@H]2O)[C@](C)(O)C[C@@H](C)C(=O)[C@H](C)[C@@H](O)[C@]1(C)O [Erythromycin]
[1]
  Sensitivity Panel, Alpha hemolytic streptococci organism isolated: Sensitive

## CS(=O)(=O)c1ccc([C@@H](O)[C@@H](CF)NC(=O)C(Cl)Cl)cc1 [Florfenicol]
Escherichia coli
  Sensitivity Panel, Escherichia coli Organism Isolated: Sensitive

## CO[C@H]1/C=C/O[C@@]2(C)Oc3c(C)c(O)c4c(O)c(c(/C=N/N5CCN(C)CC5)c(O)c4c3C2=O)NC(=O)/C(C)=C\C=C\[C@H](C)[C@H](O)[C@@H](C)[C@@H](O)[C@@H](C)[C@H](OC(C)=O)[C@@H]1C [Rifampin]
[1]
  Sensitivity Panel, Alpha hemolytic streptococci organism isolated: Sensitive

## CC1(C)S[C@@H]2[C@H](NC(=O)[C@H](C(=O)O)c3ccsc3)C(=O)N2[C@H]1C(=O)O [Ticarcillin]
[1]
  Sensitivity Panel, Alpha hemolytic streptococci organism isolated: Sensitive
Escherichia coli
  Sensitivity Panel, Escherichia coli Organism Isolated: Sensitive

## Gentamicin
[1]
  Sensitivity Panel, Alpha hemolytic streptococci organism isolated: Resistant
Escherichia coli
  Sensitivity Panel, Escherichia coli Organism Isolated: Sensitive

## TMP/Sulfa
[1]
  Sensitivity Panel, Alpha hemolytic streptococci organism isolated: Sensitive
Escherichia coli
  Sensitivity Panel, Escherichia coli Organism Isolated: Resistant

## Trimmicosin
Escherichia coli
  Sensitivity Panel, Escherichia coli Organism Isolated: Intermediate
